In patent US10954239B2, “Imidazoquinoline amine derivatives, pharmaceutical compositions and therapeutic methods thereof” (CanWell Biotech Limited, priority 2019, dated 2021):
Where two headings read alike, the source gives them in different places.

System: human PBMC
Test: TLR7/8 agonists induce cytokine release in human PBMC (ELISA of culture supernatant, 24 h)
Format: cell-based
Details: minimum effective concentration: lowest concentration inducing cytokine at least 2x negative control, tested 0.0152-100 μM
Procedure: Example 13. TLR7/8 agonists induce IFN-gamma and TNF-alpha release in human PBMC
The system is used to assess the cytokines release. Activity is based on the measurement of interferon-gamma (IFN-γ) and tumor necrosis factor-alpha (TNF-α) secreted into culture media.
Fresh human blood was diluted with the same volume of PBS, 15 mL Lymphoprep was added into a Sepmate tube, then 30 mL diluted blood was added on the top gently without disturbing the interface.
The Sepmate tube was centrifuged for 25 min at 1000×g at RT with brake off.
The buffy coat containing peripheral blood mononuclear cells (PBMCs) was collected from Sepmate tube and transferred into a new tube, and the cells were washed with 40 mL PBS twice and centrifuged at 350×g for 5 min.
PBMCs were resuspended in complete culture medium at a density of 2E6/mL.
The compounds are solubilized in dimethyl sulfoxide (DMSO) and diluted into indicated concentration with complete culture medium.
2*10^5 PBMCs (in 100 μL) were added to each well of 96-well flat bottom plate.
2× final concentration of 3-fold serial diluted compounds (in 100 μL) were added to indicated wells and final volume was 200 μL.
The plate was covered with sterile lids, mixed gently and then incubated for 24 h at 37° C./5% CO2 incubator.
Following incubation, the plates was centrifuged for 5 min. at 400×g. The cell-free culture Supernatant was removed into a non-sterile polypropylene plate. Samples are maintained at −80° C. until analysis. The samples were analyzed for TNF-α and IFN-γ by ELISA according to the direction.
TNF-α and IFN-α were analyzed by ELISA. IFN-α concentration was determined by ELISA using a Human IFN-α ELISA Kit from R&D Systems (Catalog #41100-2) and read on VICTOR Nivo™ from PerkinElmer. Results were expressed in pg/mL. TNF-α concentration was determined by ELISA using a Human TNF-alpha ELISA MAX™ Deluxe from BioLegend (Catalog #430205) and read on VICTOR Nivo™ from PerkinElmer. Results were expressed in pg/mL.
Specifically, the MEC of each compound (micromolar) was determined as the lowest concentration of the compound that induced a measured cytokine response at a level ([…]) that was at least 2× greater than that observed with the negative control wells.

[1] = read-out: MEC to induce cytokine: IFN-alpha
[2] = read-out: MEC to induce cytokine: TNF-alpha

| SMILES | minimal effective concentration [1] [µM] | minimal effective concentration [2] [µM] |
| --- | --- | --- |
| CCCCCCCCCCCCCCCCCNC(=O)C(=O)NCCCCOn1c(CCCC)nc2c(N)nc3ccccc3c21 [Example 1, N1-(4-((4-amino-2-butyl-1H-imidazo[4,5-c]quinolin-1-yl)oxy)butyl)-N2-heptadecyloxalamide] | > 33.3 | 11.1 |
| CCCCCCCCCCCCCCCCCNc1c(NCCCCOn2c(CCCC)nc3c(N)nc4ccccc4c32)c(=O)c1=O [Example 2, 3-((4-((4-amino-2-butyl-1H-imidazo[4,5-c]quinolin-1-yl)oxy)butyl)amino)-4-(heptadecylamino)cyclobut-3-ene-1,2-dione] | 0.0152 | 0.0457 |
| CCCCCCCCCCCCCCCCN1CCC(C(=O)NCCCCOn2c(CCCC)nc3c(N)nc4ccccc4c32)CC1 [Example 3, N-(4-((4-amino-2-butyl-1H-imidazo[4,5-c]quinolin-1-yl)oxy)butyl)-1-hexadecylpiperidine-4-carboxamide] | 0.137 | 0.137 |
| CCCCCCCCCCCCCCCCCCN(CCCCOn1c(CCCC)nc2c(N)nc3ccccc3c21)CCCN(C)C [Example 5, N1-(4-((4-amino-2-butyl-1H-imidazo[4,5-c]quinolin-1-yl)oxy)butyl)-N3,N3-dimethyl-N1-octadecylpropane-1,3-diamine] | 1.23 | 11.1 |
| CCCCCCCCCCCCCCCCCNC(=O)C(=O)N(CCCCOn1c(CCCC)nc2c(N)nc3ccccc3c21)CCCN(C)C [Example 6, N1-(4-((4-amino-2-butyl-1H-imidazo[4,5-c]quinolin-1-yl)oxy)butyl)-N1-(3-(dimethylamino)propyl)-N2-heptadecyloxalamide] | > 100 | > 100 |
| CCCCCCCCCCCCCCCCCNc1c(N(CCCCOn2c(CCCC)nc3c(N)nc4ccccc4c32)CCCN(C)C)c(=O)c1=O [Example 7, 3-((4-((4-amino-2-butyl-1H-imidazo[4,5-c]quinolin-1-yl)oxy)butyl)(3-(dimethylamino)propyl)amino)-4-(heptadecylamino)cyclobut-3-ene-1,2-dione] | 0.0152 | 0.41 |
| CCCCCCCCCCCCCCCCCc1nc(CCCCOn2c(CCCC)nc3c(N)nc4ccccc4c32)no1 [Example 10, 2-butyl-1-(4-(5-heptadecyl-1,2,4-oxadiazol-3-yl)butoxy)-1H-imidazo[4,5-c]quinolin-4-amine] | 11.1 | 3.7 |
| CCCCCCCCCCCCCCCCCc1noc(CCCCOn2c(CCCC)nc3c(N)nc4ccccc4c32)n1 [Example 11, 2-butyl-1-(4-(3-heptadecyl-1,2,4-oxadiazol-5-yl)butoxy)-1H-imidazo[4,5-c]quinolin-4-amine] | 11.1 | 33.3 |
| CCCCCCCCCCCCCCCCCN(CCCN(C)C)c1c(NCCCCOn2c(CCCC)nc3c(N)nc4ccccc4c32)c(=O)c1=O [Example 12, 3-(4-(4-amino-2-butyl-1H-imidazo[4,5-c]quinolin-1-yloxy)butylamino)-4-((3-(dimethylamino)propyl)(heptadecyl)amino)cyclobut-3-ene-1,2-dione] | 0.0152 | 0.41 |
